The text below walks through data of doi:10.1101/2024.12.09.627564, “Cannabinoid inhibition of mechanosensitive K^+ channels” (bioRxiv, 2024).

Substitutions are numbered along the chain they refer to.

Common to all, as to type: biochemical
In one test the target is T1, TRAAKP259L (Homo sapiens, UniProt Q9NYG8, P233L).
T1 construct: The transcribed messages encode H. sapiens TRAAK amino acids 1–393; expressed in transfected cells; host or cells: Xenopus laevis oocytes, cRNA injection
T1 sequence (Q9NYG8 1-393 P233L): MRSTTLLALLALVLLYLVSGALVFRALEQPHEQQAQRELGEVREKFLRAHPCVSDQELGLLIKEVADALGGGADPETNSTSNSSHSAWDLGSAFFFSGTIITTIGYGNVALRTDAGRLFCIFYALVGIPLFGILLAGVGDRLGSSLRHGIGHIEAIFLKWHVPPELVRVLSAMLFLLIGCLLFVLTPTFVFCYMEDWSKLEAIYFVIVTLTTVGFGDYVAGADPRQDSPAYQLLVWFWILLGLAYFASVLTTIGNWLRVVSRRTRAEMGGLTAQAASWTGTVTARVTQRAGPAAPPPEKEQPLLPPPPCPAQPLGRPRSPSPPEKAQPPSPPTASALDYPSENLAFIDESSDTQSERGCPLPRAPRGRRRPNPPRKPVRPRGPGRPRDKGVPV
Description: Excised patch recording of TRAAK mutant P259L. An excerpt:
For patch clamp recording from Xenopus oocytes, genes encoding full-length Homo sapiens TRAAK (UniProt Q9NYG8–2), TREK-1 (UniProt O95069), and TREK-2 (UniProt P57789) were codon optimized for eukaryotic expression, synthesized (Genewiz), and cloned into a modified pGEMHE vector using Xho1 and EcoR1 restriction sites. The transcribed messages encode H. sapiens TRAAK amino acids 1–393, TREK-1 amino acids 1–426, or TREK-2 amino acids 1–538 with an additional three amino acids (SNS) at the C terminus. TRAAK mutants were introduced by polymerase chain reaction (PCR). Linearized DNA was transcribed in vitro using T7 polymerase. […] Currents were recorded at 25 °C from inside-out patches excised from oocytes 1 to 5 d after RNA injection. […]
(§1) Patches were evaluated with voltage-step protocols to confirm TRAAK expression and minimal non-specific leak based on reversal potential. Currents were recorded using an Axopatch 200B amplifier (Molecular Devices) at a bandwidth of 1 kHz and digitized with an Digidata 1550B (Molecular Devices) at 100–500 kHz using pClamp10.7 software. […] In an effort to minimize variability associated with differences in resting membrane tension, we targeted patches with low basal curvature and low resting channel activity and ensured measured pressure difference across the patch was as close to zero as possible at rest to prevent mechanical activation of channels. […]

For a further test, the target named is T2, Homo sapiens TREK-1 (Homo sapiens, UniProt O95069).
T2 construct: TREK-1 amino acids 1–426; expressed in transfected cells; host or cells: Xenopus laevis oocytes, cRNA injection
T2 sequence (O95069 1-426): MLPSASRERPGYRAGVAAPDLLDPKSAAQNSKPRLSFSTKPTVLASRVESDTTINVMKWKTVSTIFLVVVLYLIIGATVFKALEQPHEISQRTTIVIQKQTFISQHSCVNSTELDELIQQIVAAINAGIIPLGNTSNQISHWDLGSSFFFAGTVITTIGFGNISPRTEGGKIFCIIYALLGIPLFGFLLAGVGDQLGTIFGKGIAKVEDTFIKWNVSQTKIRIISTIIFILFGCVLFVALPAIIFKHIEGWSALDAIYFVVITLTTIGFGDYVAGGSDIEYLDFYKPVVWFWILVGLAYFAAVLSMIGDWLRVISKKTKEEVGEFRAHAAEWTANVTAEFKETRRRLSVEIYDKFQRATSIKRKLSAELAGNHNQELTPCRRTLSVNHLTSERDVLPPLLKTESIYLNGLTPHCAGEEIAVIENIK
Description: Excised inside-out patch recording of TREK-1 from Xenopus oocytes.
Excerpt: (§2) For patch clamp recording from Xenopus oocytes, genes encoding full-length Homo sapiens TRAAK (UniProt Q9NYG8–2), TREK-1 (UniProt O95069), and TREK-2 (UniProt P57789) were codon optimized for eukaryotic expression, synthesized (Genewiz), and cloned into a modified pGEMHE vector using Xho1 and EcoR1 restriction sites. The transcribed messages encode H. sapiens TRAAK amino acids 1–393, TREK-1 amino acids 1–426, or TREK-2 amino acids 1–538 with an additional three amino acids (SNS) at the C terminus. TRAAK mutants were introduced by polymerase chain reaction (PCR). Linearized DNA was transcribed in vitro using T7 polymerase. Complementary RNA (0.1 to 10 ng for TRAAK, TREK-1, TREK-2, and mutants) in 50 nL H2O was injected into Xenopus laevis oocytes extracted from anesthetized frogs. Currents were recorded at 25 °C from inside-out patches excised from oocytes 1 to 5 d after RNA injection. […]
as §1, with “channels. Data were analyzed using Clampfit 10.7, Excel, and Graphpad Prism software.” for “channels.”
(§3) To avoid cannabinoid absorption to plastic, cannabinoid solutions were made in glass vials and diluted by weight, perfusion was performed using glass tubing pulled from borosilicate glass Pasteur pipettes (Fisherbrand, Cat# 13–678-20C), and recordings were performed in glass chambers. Channel activity was continuously recorded during perfusion steps. […]

The target in a further test is T3, TRAAKA270P (Homo sapiens, UniProt Q9NYG8, A244P).
T3 construct: The transcribed messages encode H. sapiens TRAAK amino acids 1–393; expressed in transfected cells; host or cells: Xenopus laevis oocytes, cRNA injection
T3 sequence (Q9NYG8 1-393 A244P): T1 sequence (Q9NYG8 1-393 P233L) with L233P, A244P
Description: Excised patch recording of TRAAK mutant A270P.
Excerpt: as §2
as §1, with “channels. Data were analyzed using Clampfit 10.7, Excel, and Graphpad Prism software.” for “channels.”
as §3

The term IC50 denotes the concentration that inhibits the measured activity by half. A lower IC50 goes with inhibition by little substance. As to `C=C(C)[C@@H]1CCC(C)=C[C@H]1c1c(O)cc(CCCCC)cc1O` [CBD, Cannabidiol], the values for the IC50 at TRAAKP259L, against Homo sapiens TREK-1 and at TRAAKA270P were 156 ± 8 nM, 1500 nM and 1120 ± 40 nM, respectively. At Homo sapiens TREK-1 (TREK-1 dose-response), this compound had a Hill-coefficient of 1.5. Further, the “fold less sensitive than TRAAK” value at Homo sapiens TREK-1 (TREK-1 vs TRAAK) is ~ 10 fold. The “inhibition of channel activity at high concentration” value against TRAAKA270P (10 μM CBD) is “fully inhibited”. The “fold less sensitive than wild-type TRAAK” value on TRAAKA270P (A270P vs wild-type) is on record as ~ 8 fold.
